What all share (format): functional
Experiment [1] has as its target T1, Putative uncharacterized protein pk7 (Plasmodium falciparum, UniProt O96214).
T1 sequence (O96214 whole entry): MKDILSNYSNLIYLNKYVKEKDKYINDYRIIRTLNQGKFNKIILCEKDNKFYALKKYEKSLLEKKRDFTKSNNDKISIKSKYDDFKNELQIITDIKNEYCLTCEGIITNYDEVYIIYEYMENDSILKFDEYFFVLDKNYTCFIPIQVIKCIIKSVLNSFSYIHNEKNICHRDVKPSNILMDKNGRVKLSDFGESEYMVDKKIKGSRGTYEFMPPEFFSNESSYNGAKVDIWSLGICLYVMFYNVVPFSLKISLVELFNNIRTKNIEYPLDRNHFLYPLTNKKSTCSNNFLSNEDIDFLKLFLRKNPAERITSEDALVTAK
Nature of the experiment: Final concentrations were 1 uM ATP, 2 mM DTT, 20 mM MgCl2, 2 mM MnCl2, 0.01% BSA, and 6 ug/ml PK7, in a buffer of 20 mM Tris-HCl (pH 7.5). The enzyme itself was the only substrate present (since autophosphorylation occurs); 100 uM 1NA-PP1 was used as a control inhibitor. Incubation time was 3 hours.

The target in experiment [2] is T2, Cdk-related protein kinase 6 (Plasmodium falciparum, UniProt O77239).
T2 sequence (O77239 whole entry): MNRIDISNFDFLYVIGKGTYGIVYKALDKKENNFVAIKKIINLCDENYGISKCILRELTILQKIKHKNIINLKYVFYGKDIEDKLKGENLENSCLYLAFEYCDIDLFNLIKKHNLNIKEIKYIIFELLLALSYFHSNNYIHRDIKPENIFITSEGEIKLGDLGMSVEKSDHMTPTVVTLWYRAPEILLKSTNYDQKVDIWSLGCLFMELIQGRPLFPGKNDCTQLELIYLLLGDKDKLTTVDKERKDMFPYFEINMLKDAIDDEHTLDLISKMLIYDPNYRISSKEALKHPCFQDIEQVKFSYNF
Nature of the experiment: Final concentrations were 1.5 uM ATP, 5 mM MnCl2, and 15 ug/ml PK6 in a buffer of 100 mM Tris-HCl (pH 7.5). 50 ug/mL MBP was provided as the substrate; 10 uM staurosporine was used as a control inhibitor. Incubation time was 3 hours and 40 minutes.The catalytic activity of each kinase was considered proportional to ATP consumed, as determined from measurements of residual [ATP] with the luciferase-based reagent Kinase-Glo (Promega) following incubation. Luminescence (proportional to residual [ATP]) was measured on the plate readers FLx800 (BioTek Instruments, Winooski, VT, USA) and MicroBeta2.

Experiment [3] concerns the target T3, Mitogen-activated protein kinase (Plasmodium falciparum, UniProt Q25917).
T3 sequence (Q25917 whole entry): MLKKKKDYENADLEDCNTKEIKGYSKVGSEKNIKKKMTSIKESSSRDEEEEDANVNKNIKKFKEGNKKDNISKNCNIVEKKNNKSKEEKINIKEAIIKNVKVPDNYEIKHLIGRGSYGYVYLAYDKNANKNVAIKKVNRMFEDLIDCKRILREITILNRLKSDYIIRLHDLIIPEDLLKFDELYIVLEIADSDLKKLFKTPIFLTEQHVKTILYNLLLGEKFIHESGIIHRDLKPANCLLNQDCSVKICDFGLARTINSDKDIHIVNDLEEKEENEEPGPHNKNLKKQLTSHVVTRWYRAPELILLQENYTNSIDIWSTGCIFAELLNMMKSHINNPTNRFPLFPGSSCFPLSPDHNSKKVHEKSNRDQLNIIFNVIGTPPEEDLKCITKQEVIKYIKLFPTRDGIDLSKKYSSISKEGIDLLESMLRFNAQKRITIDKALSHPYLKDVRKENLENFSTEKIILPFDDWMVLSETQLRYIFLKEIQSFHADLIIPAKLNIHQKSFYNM
Nature of the experiment: Final concentrations were 1 uM ATP, 0.5 mM DTT, 1 mM MgCl2, 0.5 mg/mL BSA, and 10 ug/ml MAP2 in a buffer of 50 mM HEPES (pH 7.0). 0.5 mg/mL histone III-S served as the substrate (13); 100 uM AMP-PNP, an ATP analog, was used as a control inhibitor. Incubation time was 4 hours.

Experiment [4] has as its target T4, Calcium-dependent protein kinase 4 (Plasmodium falciparum (isolate 3D7), UniProt Q8IBS5).
T4 sequence (Q8IBS5 whole entry): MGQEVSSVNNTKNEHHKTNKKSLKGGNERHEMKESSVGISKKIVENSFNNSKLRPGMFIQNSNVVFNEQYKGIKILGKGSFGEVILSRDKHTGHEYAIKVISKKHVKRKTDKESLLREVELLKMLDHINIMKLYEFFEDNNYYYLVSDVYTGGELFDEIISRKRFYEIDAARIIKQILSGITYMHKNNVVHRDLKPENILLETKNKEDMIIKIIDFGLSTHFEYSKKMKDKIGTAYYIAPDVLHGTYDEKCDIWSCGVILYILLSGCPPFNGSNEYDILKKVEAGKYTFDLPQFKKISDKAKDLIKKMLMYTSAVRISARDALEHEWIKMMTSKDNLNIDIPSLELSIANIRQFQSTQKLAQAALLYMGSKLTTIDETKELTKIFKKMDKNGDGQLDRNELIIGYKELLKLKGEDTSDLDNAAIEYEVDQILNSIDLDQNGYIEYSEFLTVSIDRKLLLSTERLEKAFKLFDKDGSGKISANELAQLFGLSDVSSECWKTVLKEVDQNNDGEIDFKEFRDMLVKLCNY
Nature of the experiment: MMV: CDPK4 Protein kinase inhibition assay using recombinant PfCDPK4, syntide2 peptide substrate, ATP and KinaseGlo to measure % inhibition at 1 uM MMV box compound. In general terms: In Kinase-Glo more light means more ATP remaining.

Experiment [5] has as its target Lysine--tRNA ligase (Plasmodium falciparum (isolate 3D7), UniProt Q8IDJ8). Nature of the experiment: MMV: KRS recombinant Plasmodium falciparum Lysyl-tRNA-synthetase, assay with yeast tRNA, ATP, and lysine and 3 uM MMV malaria box compound, assay read out with kinase glo as % inhibition.
Experiment [6] deals with T5, Proline--tRNA ligase (Plasmodium falciparum (isolate 3D7), UniProt Q8I5R7).
T5 sequence (Q8I5R7 whole entry): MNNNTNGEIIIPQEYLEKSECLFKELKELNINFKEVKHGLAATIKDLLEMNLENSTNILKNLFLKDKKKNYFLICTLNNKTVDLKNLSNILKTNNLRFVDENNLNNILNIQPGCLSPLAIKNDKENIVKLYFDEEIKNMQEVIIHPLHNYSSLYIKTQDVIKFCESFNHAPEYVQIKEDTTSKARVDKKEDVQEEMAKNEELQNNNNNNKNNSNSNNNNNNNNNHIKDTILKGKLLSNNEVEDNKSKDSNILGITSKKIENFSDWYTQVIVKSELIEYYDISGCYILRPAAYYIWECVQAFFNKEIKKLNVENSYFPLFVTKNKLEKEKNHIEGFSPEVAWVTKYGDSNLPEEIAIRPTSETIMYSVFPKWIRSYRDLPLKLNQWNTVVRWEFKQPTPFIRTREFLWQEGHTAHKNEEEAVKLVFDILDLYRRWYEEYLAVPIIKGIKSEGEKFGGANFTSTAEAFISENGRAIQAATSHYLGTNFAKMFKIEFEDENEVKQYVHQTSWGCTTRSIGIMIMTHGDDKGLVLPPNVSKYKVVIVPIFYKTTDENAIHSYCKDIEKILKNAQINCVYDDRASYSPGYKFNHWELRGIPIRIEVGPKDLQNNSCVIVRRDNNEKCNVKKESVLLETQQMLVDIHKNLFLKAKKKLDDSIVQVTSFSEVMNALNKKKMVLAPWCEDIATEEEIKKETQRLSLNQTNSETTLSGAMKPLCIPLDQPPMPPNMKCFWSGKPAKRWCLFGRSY
Nature of the experiment: MMV: ProRS recombinant Plasmodium falciparum Prolyl-tRNA-synthetase, assay with yeast tRNA, ATP, and proline and 3 uM MMV malaria box compound, assay read out with kinase glo as % inhibition.

In experiment [7] the target is Calcium-dependent protein kinase 1 (Plasmodium falciparum, UniProt P62344). Nature of the experiment: MMV: CDPK1 Protein kinase inhibition assay using recombinant PfCDPK1, syntide 2 peptide substrate, ATP and KinaseGlo to measure % inhibition at 1 uM MMV box compound.
Sequence of Calcium-dependent protein kinase 1 (P62344 whole entry): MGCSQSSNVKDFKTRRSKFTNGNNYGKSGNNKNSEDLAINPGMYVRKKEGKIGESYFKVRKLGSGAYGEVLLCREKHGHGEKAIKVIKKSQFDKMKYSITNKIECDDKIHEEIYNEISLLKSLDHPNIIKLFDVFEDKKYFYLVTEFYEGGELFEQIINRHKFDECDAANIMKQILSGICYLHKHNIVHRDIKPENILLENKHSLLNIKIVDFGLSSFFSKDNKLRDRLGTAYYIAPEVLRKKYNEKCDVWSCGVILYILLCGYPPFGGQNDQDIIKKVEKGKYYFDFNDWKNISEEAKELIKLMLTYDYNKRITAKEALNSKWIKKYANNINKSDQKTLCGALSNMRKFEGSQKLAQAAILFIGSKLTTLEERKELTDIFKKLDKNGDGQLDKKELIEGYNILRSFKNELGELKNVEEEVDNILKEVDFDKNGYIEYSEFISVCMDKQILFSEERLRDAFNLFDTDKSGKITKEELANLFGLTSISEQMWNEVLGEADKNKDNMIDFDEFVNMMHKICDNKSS

Sequence of Lysine--tRNA ligase (Q8IDJ8 whole entry): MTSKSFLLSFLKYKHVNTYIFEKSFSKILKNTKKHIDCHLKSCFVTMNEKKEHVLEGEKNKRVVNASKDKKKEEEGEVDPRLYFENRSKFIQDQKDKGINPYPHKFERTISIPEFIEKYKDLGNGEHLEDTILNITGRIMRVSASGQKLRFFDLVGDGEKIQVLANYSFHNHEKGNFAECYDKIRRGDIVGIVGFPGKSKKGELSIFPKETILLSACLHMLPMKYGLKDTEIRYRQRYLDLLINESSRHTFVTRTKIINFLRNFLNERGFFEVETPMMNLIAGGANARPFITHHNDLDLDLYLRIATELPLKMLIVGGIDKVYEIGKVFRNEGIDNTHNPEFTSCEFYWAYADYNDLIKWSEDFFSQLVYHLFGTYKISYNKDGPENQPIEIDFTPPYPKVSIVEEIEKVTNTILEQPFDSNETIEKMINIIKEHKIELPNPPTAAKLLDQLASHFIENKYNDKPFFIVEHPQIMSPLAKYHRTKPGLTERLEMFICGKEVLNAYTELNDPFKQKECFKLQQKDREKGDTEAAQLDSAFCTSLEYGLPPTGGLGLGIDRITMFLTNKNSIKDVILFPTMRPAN

Turning to `c1ccc(/C2=N/c3ccccc3/N=C(/c3ccccc3)c3ccccc32)cc1`, the half-inhibitory concentration (IC50) was more than 1000 nM in experiment [1]; more than 1000 nM in experiment [2]; more than 1000 nM in experiment [3]; more than 1000 nM in experiment [4]; more than 2500 nM in experiment [5]; more than 2500 nM in experiment [6]. Also, the IC50 in experiment [7] was more than 1000 nM.
Regarding `CCOC(=O)c1c(C)n(-c2ccccc2)c2ccc(OC(=O)c3cc(OC)c(OC)c(OC)c3)cc12`, the IC50 was more than 1000 nM in experiment [1]; more than 1000 nM in experiment [2]; more than 1000 nM in experiment [3]; more than 1000 nM in experiment [4]; more than 2500 nM in experiment [5]; more than 2500 nM in experiment [6]. For the same compound, the IC50 in experiment [7] is more than 1000 nM.
Consider `COc1ccc(C2c3ccc4ccccc4c3Oc3ncn(CCCn4ccnc4)c(=N)c32)cc1OC` (stereo not drawn), for which the IC50 in experiment [1] was more than 1000 nM; in experiment [2], more than 1000 nM; in experiment [3], more than 1000 nM; in experiment [4], more than 1000 nM; in experiment [5] it was more than 2500 nM; in experiment [6], more than 2500 nM. Moreover, the IC50 in experiment [7] is more than 1000 nM.
Take `CN(N=O)C1=C(NC2CCCCC2)C(=O)c2ccccc2C1=O`: the IC50 was more than 1000 nM in experiment [1]; more than 1000 nM in experiment [2]; more than 1000 nM in experiment [3]; more than 1000 nM in experiment [4]; more than 2500 nM in experiment [5]; more than 2500 nM in experiment [6]. Besides, the IC50 in experiment [7] was more than 1000 nM.
Turning to `CC(Oc1ccc(NC(=O)c2cccs2)cc1)C(=O)c1ccc(Cl)cc1` (stereo not drawn), the IC50 was more than 1000 nM in experiment [1]; more than 1000 nM in experiment [2]; more than 1000 nM in experiment [3]; more than 1000 nM in experiment [4]; more than 2500 nM in experiment [5]; more than 2500 nM in experiment [6]. Further, the IC50 in experiment [7] was more than 1000 nM.
For `O=C(NC1CCN(Cc2ccccc2)CC1)c1cc(C(=O)NC2CCN(Cc3ccccc3)CC2)cc(C(=O)NC2CCN(Cc3ccccc3)CC2)c1`, the IC50 is more than 1000 nM in experiment [1]; more than 1000 nM in experiment [2]; more than 1000 nM in experiment [3]; more than 1000 nM in experiment [4]; more than 2500 nM in experiment [5]; more than 2500 nM in experiment [6]. The half-inhibitory concentration (IC50) in experiment [7] is more than 1000 nM.
With `COc1ccc(-c2cn3c(C(=O)Nc4ccccc4Cl)c(-c4ccccc4)c4c3n2CCCC4)cc1`, the IC50 in experiment [1] is more than 1000 nM; in experiment [2] it was more than 1000 nM; in experiment [3] it was more than 1000 nM; in experiment [4] it was more than 1000 nM; in experiment [5], more than 2500 nM; in experiment [6], more than 2500 nM. The IC50 in experiment [7] was more than 1000 nM.
As for `CCN(CC)CCNc1ccnc2cc3ccccc3cc12`, the 50% inhibitory concentration (IC50) was more than 1000 nM in experiment [1]; more than 1000 nM in experiment [2]; more than 1000 nM in experiment [3]; more than 1000 nM in experiment [4]; more than 2500 nM in experiment [5]; more than 2500 nM in experiment [6]. In addition, the IC50 in experiment [7] was more than 1000 nM.
For the compound `CCOc1cc2c(cc1OCC)C(c1cc(Cl)ccc1O)NCC2` (stereo not drawn), the IC50 in experiment [1] is more than 1000 nM; in experiment [2], more than 1000 nM; in experiment [3] it was more than 1000 nM; in experiment [4] it was more than 1000 nM; in experiment [5], more than 2500 nM; in experiment [6], more than 2500 nM. The IC50 in experiment [7] was more than 1000 nM.
For the compound `O=C(Cc1ccccc1)NC(c1ccc(Cl)cc1)c1c(O)ccc2ccccc12` (stereo not drawn), the IC50 is more than 1000 nM in experiment [1]; more than 1000 nM in experiment [2]; more than 1000 nM in experiment [3]; more than 1000 nM in experiment [4]; more than 2500 nM in experiment [5]; more than 2500 nM in experiment [6]. In addition, the IC50 in experiment [7] was more than 1000 nM.
In the case of `Cc1cccc(N2C(=O)C3C(C2=O)C2(c4ccccc4)C(=O)C3(c3ccccc3)C(c3ccc4c(c3)OCO4)=C2c2ccc3c(c2)OCO3)c1` (stereo not drawn), the IC50 in experiment [1] was more than 1000 nM; in experiment [2], more than 1000 nM; in experiment [3], more than 1000 nM; in experiment [4] it was more than 1000 nM; in experiment [5], more than 2500 nM; in experiment [6], more than 2500 nM. In addition, the 50% inhibitory concentration (IC50) in experiment [7] was more than 1000 nM.
Take `CC1CC2=C(CC1CNCCCN(C)C)C(C)(C)CCC2` (stereo not drawn): the half-maximal inhibitory concentration (IC50) in experiment [1] was more than 1000 nM; in experiment [2], more than 1000 nM; in experiment [3] it was more than 1000 nM; in experiment [4] it was more than 1000 nM; in experiment [5], more than 2500 nM; in experiment [6], more than 2500 nM. The IC50 in experiment [7] is more than 1000 nM.
Consider `CN(C)c1ccc(N=Cc2ccc(N3CCOCC3)cc2)cc1`, for which the IC50 in experiment [1] is more than 1000 nM; in experiment [2], more than 1000 nM; in experiment [3] it was more than 1000 nM; in experiment [4], more than 1000 nM; in experiment [5] it was more than 2500 nM; in experiment [6], more than 2500 nM. Further, the IC50 in experiment [7] is more than 1000 nM.
As to `CCCCc1c(CCC)c(=N)c2ccccc2n1C`, the IC50 in experiment [1] was more than 1000 nM; in experiment [2], more than 1000 nM; in experiment [3], more than 1000 nM; in experiment [4], more than 1000 nM; in experiment [5], more than 2500 nM; in experiment [6], more than 2500 nM. In addition, in experiment [7], the IC50 was more than 1000 nM.

The IC50 is the point on the concentration scale where inhibition reaches its midpoint.
